Patent US20050009840A1 (SUGEN, INC., priority 2003, published 2005)
Where “and” joins values, the source holds several entries; their conditions need not be identical. Identical values can stand only once.

Molecular target: T1, Met kinase domain (GST fusion protein) (Homo sapiens, UniProt P08581)
T1 construct: Purified GST fusion protein containing the Met kinase domain
Experiment: Met transphosphorylation assay (ELISA, poly(glu-tyr) substrate);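 note: Cell-free ELISA with plate-bound poly(Glu:Tyr 4:1) phosphorylated by GST-fused Met kinase domain plus ATP and Mn2+, phosphotyrosine detected by anti-phosphotyrosine antibody with HRP and ABTS read-out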
Format: biochemical
Conditions: at 20 μM; read-out: Met inhibition (printed in the Met IC50 column)

T1 sequence (P08581 1078-1345 limits assumed): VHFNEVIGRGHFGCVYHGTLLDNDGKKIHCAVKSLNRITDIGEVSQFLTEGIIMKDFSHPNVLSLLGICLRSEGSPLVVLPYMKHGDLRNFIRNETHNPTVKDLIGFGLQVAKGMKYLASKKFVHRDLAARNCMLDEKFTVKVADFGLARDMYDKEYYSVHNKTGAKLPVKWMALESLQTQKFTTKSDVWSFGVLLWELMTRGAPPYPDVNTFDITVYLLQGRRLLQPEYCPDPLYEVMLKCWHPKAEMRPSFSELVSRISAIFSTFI

inhibition at 20 µM [%]	SMILES
40	Nc1ncc(Br)cc1OCc1c(F)cccc1F [I(c)]

Same assay, conditions: plain numbers in column Met IC50 (μM) of Table 2; read-out: Met IC50

SMILES	IC50 [µM]
CCCCOc1cnc(N)c(OC(C)c2c(F)ccc(F)c2Cl)c1 (stereo not drawn) [Example I-532, 3-[1-(2-Chloro-3,6-difluoro-phenyl)-ethoxy]-5-butoxy-pyridin-2-ylamine]	1.94
CCCOc1cnc(N)c(OC(C)c2c(F)ccc(F)c2Cl)c1 (stereo not drawn) [Example I-533, 3-[1-(2-Chloro-3,6-difluoro-phenyl)-ethoxy]-5-propoxy-pyridin-2-ylamine]	0.672
CC(Oc1cc(OCC2CCCCC2)cnc1N)c1c(F)ccc(F)c1Cl (stereo not drawn) [Example I-534, 3-[1-(2-Chloro-3,6-difluoro-phenyl)-ethoxy]-5-cyclohexylmethoxy-pyridin-2-ylamine]	5.97
CC(Oc1cc(O)cnc1N)c1c(F)ccc(F)c1Cl (stereo not drawn) [Example I-535, 6-Amino-5-[1-(2-chloro-3,6-difluoro-phenyl)-ethoxy]-pyridin-3-ol]	0.54
CC(Oc1cc(OCCC2CCCCC2)cnc1N)c1c(F)ccc(F)c1Cl (stereo not drawn) [Example I-536, 3-[1-(2-Chloro-3,6-diftuoro-phenyl)-ethoxy]-5-(2-cyclohexyl-ethoxy)-pyridin-2-ylamine]	7.5
CC(C)COc1cnc(N)c(OC(C)c2c(F)ccc(F)c2Cl)c1 (stereo not drawn) [Example I-537, 3-[1-(2-Chloro-3,6-difluoro-phenyl)-ethoxy]-5-isobutoxy-pyridin-2-ylamine]	1.2
CC(Oc1cc(OCCc2ccccc2)cnc1N)c1c(F)ccc(F)c1Cl (stereo not drawn) [Example I-538, 3-[1-(2-Chloro-3,6-difluoro-phenyl)-ethoxy]-5-phenethyloxy-pyridin-2-ylamine]	2.8
CC(Oc1cc(OCc2ccccn2)cnc1N)c1c(F)ccc(F)c1Cl (stereo not drawn) [Example I-539, 3-[1-(2-Chloro-3,6-difluoro-phenyl)-ethoxy]-5-(pyridin-2-ylmethoxy)-pyridin-2-ylamine]	3.2
CC(Oc1cc(OCc2ccncc2)cnc1N)c1c(F)ccc(F)c1Cl (stereo not drawn) [Example I-540, 3-[1-(2-Chloro-3,8-difluoro-phenyl)-ethoxy]-5-(pyridin-4-ylmethoxy)-pyridin-2-ylamine]	0.8
CC(Oc1cc(-c2ccc(C(=O)N3CCN(C)CC3)cc2)cnc1N)c1c(Cl)ccc(F)c1Cl (stereo not drawn) [Example I-541, (4-{6-Amino-5-[1-(2,6-dichloro-3-fluoro-phenyl)-ethoxy]-pyridin-3-yl}-phenyl)-(4-methyl-piperazin-1-yl)-methanone]	0.079

Same assay, conditions: read-out: Met IC50

SMILES	IC50
Nc1ncc(Br)cc1OCc1c(Cl)cccc1Cl [I(a), 5-Bromo-3-(2,6-dichloro-benzyloxy)-pyridin-2-ylamine]	5.3 µM
Nc1ncc(Br)cc1OCc1ccccc1 [I(b), 3-Benzyloxy-5-bromo-pyridin-2-ylamine]	> 20 µM
Nc1ncc(Br)cc1OCc1ccccc1Br [I(d), 5-Bromo-3-(2-bromo-benzyloxy)-pyridin-2-ylamine]	> 20 µM
Nc1ncc(Br)cc1OCc1c(F)cccc1Cl [I(e), 5-Bromo-3-(2-chloro-6-fluoro-benzyloxy)-pyridin-2-ylamine]	20 µM
Nc1ncc(Br)cc1OCc1c(F)ccc(F)c1Cl [I(l), 5-Bromo-3-(2-chloro-3.6-difluoro-benzyloxy)-pyridin-2-ylamine]	5.3 µM
Nc1ncc(Br)nc1OCc1c(Cl)cccc1Cl [II(a), 5-Bromo-3-(2,6-dichloro-benzyloxy)-pyrazin-2-ylamine]	> 20 µM
Nc1ncc(Br)nc1OCc1c(F)ccc(F)c1Cl [II(b), 5-Bromo-3-(2-chloro-3,6-difluoro-benzyloxy)-pyrazin-2-ylamine]	> 20 µM
CC(Oc1nc(Br)cnc1N)c1c(F)ccc(F)c1Cl (stereo not drawn) [II(c), 5-Bromo-3-[1-(2-chloro-3,6-difluoro-phenyl)-ethoxy]-pyrazin-2-ylamine]	1.81 µM and 2.67 µM
CC(C)C(Oc1nc(Br)cnc1N)c1c(F)ccc(F)c1Cl (stereo not drawn) [II(d), 5-Bromo-3-[1-(2-chloro-3,6-difluoro-phenyl)-2-methyl-propoxy]-pyrazin-2-ylamine]	18.1 µM
CC(Oc1nc(Br)cnc1N)c1c(Cl)ccc(F)c1Cl (stereo not drawn) [II(e), 5-Bromo-3-[1-(2,6-dichloro-3-fluoro-phenyl)-ethoxy]-pyrazin-2-ylamine]	0.24 µM and 0.66 µM and 1.3 µM
Nc1ncc(-c2ccc(O)cc2)nc1OCc1c(Cl)cccc1Cl [II-1, 4-[5-Amino-6-(2,6-dichloro-benzyloxy)-pyrazin-2-yl]-phenol]	1.35 µM
Nc1ncc(-c2ccc(N3CCCS3(=O)=O)cc2)nc1OCc1c(Cl)cccc1Cl [II-2, 3-(2,6-Dichloro-benzyloxy)-5-[4-(1,1-dioxo-1λ^6-isothiazolidin-2-yl)-phenyl]-pyrazin-2-ylamine]	0.825 µM
Nc1ncc(-c2cccc(OCCN3CCOCC3)c2)nc1OCc1c(Cl)cccc1Cl [II-3, 3-(2,6-Dichloro-benzyloxy)-5-[3-(2-morpholin-4-yl-ethoxy)-phenyl]-pyrazin-2-ylamine]	0.74 µM
Nc1ncc(-c2ccc(OCCN3CCOCC3)cc2)nc1OCc1c(Cl)cccc1Cl [II-4, 3-(2,6-Dichloro-benzyloxy)-5-[4-(2-morpholin-4-yl-ethoxy)-phenyl]-pyrazin-2-ylamine]	1.25 µM
Nc1ccc(-c2cnc(N)c(OCc3c(Cl)cccc3Cl)n2)cc1 [II-5, 5-(4-Amino-phenyl)-3-(2,6-dichloro-benzyloxy)-pyrazin-2-ylamine]	0.94 µM
Nc1ncc(-c2ccc(C(=O)O)cc2)nc1OCc1c(Cl)cccc1Cl [II-6, 4-[5-amino-6-(2,6-dichloro-benzyloxy)-pyrazin-2-yl]-benzoic acid]	1.75 µM

SMILES	IC50
Nc1ncc(-c2ccc(C(=O)N3CCC[C@@H]3CN3CCCC3)cc2)nc1OCc1c(Cl)cccc1Cl [II-7, {4-[5-Amino-6-(2,6-dichloro-benzyloxy)-pyrazin-2-yl]-phenyl)[(2R)-2-pyrrolidin-1-ylmethyl-pyrrolidin-1-yl]-methanone]	0.24 µM
Nc1ncc(-c2ccc(C(=O)N3CCC(N4CCCC4)CC3)cc2)nc1OCc1c(Cl)cccc1Cl [II-8]	0.56 µM
Nc1ncc(-c2ccc(NS(=O)(=O)CCN3CCOCC3)cc2)nc1OCc1c(F)ccc(F)c1Cl [II-9, 2-Morpholin-4-yl-ethanesulfonic acid {4-[5-amino-6-(2-chloro-3,6-difluoro-benzyloxy)-pyrazin-2-yl]-phenyl}-amide]	1.26 µM
Nc1ncc(-c2ccc(NS(=O)(=O)CCN3CCCCC3)cc2)nc1OCc1c(F)ccc(F)c1Cl [II-10, 2-Piperidin-1-yl-ethanesulfonic acid {4-[5-amino-6-(2-chloro-3,6-difluoro-benzyloxy)-pyrazin-2-yl]-phenyl}-amide]	1.2 µM
Nc1ncc(-c2ccc(NS(=O)(=O)CCN3CCC(O)CC3)cc2)nc1OCc1c(F)ccc(F)c1Cl [II-11, 2-(4-Hydroxy-piperidin-1-yl)-ethanesulfonic acid {4-[5-amino-6-(2-chloro-3,6-difluoro-benzyloxy)-pyrazin-2-yl]-phenyl}-amide]	0.65 µM
Nc1ncc(-c2ccc(NS(=O)(=O)CCN3CCCC3)cc2)nc1OCc1c(F)ccc(F)c1Cl [II-12, 2-Pyrrolidin-1-yl-ethanesulfonic acid {4-[5-amino-6-(2-chloro-3,6-difluoro-benzyloxy)-pyrazin-2-yl]-phenyl}-amide]	0.58 µM
Nc1ncc(-c2ccc(NS(=O)(=O)CCN3CC[C@@H](O)C3)cc2)nc1OCc1c(F)ccc(F)c1Cl [II-13, 2-[(3R)-3-Hydroxy-pyrrolidin-1-yl]-ethanesulfonic acid {4-[5-amino-6-(2-chloro-3,6-difluoro-benzyloxy)-pyrazin-2-yl]-phenyl}-amide]	1.59 µM
Nc1ncc(-c2ccc(NS(=O)(=O)CCN3CCC[C@H]3CO)cc2)nc1OCc1c(F)ccc(F)c1Cl [II-14, 2-[(2S)-2-Hydroxymethyl-pyrrolidin-1-yl]-ethanesulfonic acid {4-[5-amino-6-(2-chloro-3,6-difluoro-benzyloxy)-pyrazin-2-yl]-phenyl}-amide]	1.78 µM
Nc1ncc(-c2ccc(NS(=O)(=O)CCNCC3CC3)cc2)nc1OCc1c(F)ccc(F)c1Cl [II-15, 2-(Cyclopropylmethyl-amino)-ethanesulfonic acid {4-[5-amino-6-(2-chloro-3,6-difluoro-benzyloxy)-pyrazin-2-yl]-phenyl}-amide]	1.28 µM
CN(C)CCS(=O)(=O)Nc1ccc(-c2cnc(N)c(OCc3c(F)ccc(F)c3Cl)n2)cc1 [II-16, 2-Dimethylamino-ethanesulfonic acid {4-[5-amino-6-(2-chloro-3,6-difluoro-benzyloxy)-pyrazin-2-yl]-phenyl}-amide]	0.91 µM
CC(=O)N1CCN(CCS(=O)(=O)Nc2ccc(-c3cnc(N)c(OCc4c(F)ccc(F)c4Cl)n3)cc2)CC1 [II-18, 2-(4-Acetyl-piperazin-1-yl)-ethanesulfonic acid {4-[5-amino-6-(2-chloro-3,6-difluoro-benzyloxy)-pyrazin-2-yl]-phenyl}-amide]	1.5 µM
Nc1ncc(-c2ccc(NS(=O)(=O)CCNC3CC3)cc2)nc1OCc1c(F)ccc(F)c1Cl [II-20, 2-Cyclopropylamino-ethanesulfonic acid {4-[5-amino-6-(2-chloro-3,6-difluoro-benzyloxy)-pyrazin-2-yl]-phenyl}-amide]	1.29 µM
Nc1ncc(-c2cccc(NS(=O)(=O)CCN3CCC(O)CC3)c2)nc1OCc1c(F)ccc(F)c1Cl [II-22, 2-(4-Hydroxy-piperidin-1-yl)-ethanesulfonic acid {3-[5-amino-6-(2-chloro-3,6-difluoro-benzyloxy)-pyrazin-2-yl]-phenyl}-amide]	0.7 µM
CC(=O)N1CCN(CCS(=O)(=O)Nc2cccc(-c3cnc(N)c(OCc4c(F)ccc(F)c4Cl)n3)c2)CC1 [II-23, 2-(4-Acetyl-piperazin-1-yl)-ethanesulfonic acid {3-[5-amino-6-(2-chloro-3,6-difluoro-benzyloxy)-pyrazin-2-yl]-phenyl]-amide]	2.79 µM
Nc1ncc(-c2cccc(NS(=O)(=O)CCN3CCCCC3)c2)nc1OCc1c(F)ccc(F)c1Cl [II-24, 2-Piperidin-1-yl-ethanesulfonic acid {3-[5-amino-6-(2-chloro-3,6-difluoro-benzyloxy)-pyrazin-2-yl]-phenyl}-amide]	3.5 µM
